Source: PMC11232109, “Synthesis, anticancer evaluation of novel hybrid pyrazole-based chalcones, molecular docking, DNA fragmentation, and gene expression: in vitro studies” (RSC Advances, 2024)
Several values for one entry are separate records, joined by “and”; a condition that tells them apart may be missing. Identical values can stand only once. Like-named read-outs stand apart in the source and are kept apart here. Marks after values point to notes of the source that are not given here.

What was measured:
Paca2 = assay: Comet assay (DNA damage), pancreatic cancer cell line; type: cell-based, human; conditions: for DNA damaged cells% (mean ± SEM): Paca2, comet assay, −ve 10.12 ± 0.85; for No. of cells, Class 0 / No. of cells, Class 1 / No. of cells, Class 2 / No. of cells, Class 3: Paca2, of 405 cells; for No. of cells, Class 0: class 0 = no tail; for No. of cells, Class 1: class 1 = tail length < diameter of nucleus; for No. of cells, Class 2: class 2 = tail length between 1× and 2× the diameter of nucleus; for No. of cells, Class 3: class 3 = tail length > 2× the diameter of nucleus
Experimental: (§1) Olive et al. (1990) used pancreatic and breast cancer cell lines to measure the DNA damage using the comet test.[53] Approximately 1.5 × 10^4 cells were imbedded in 0.75% low-gelling-temperature agarose after trypsin treatment to generate a single-cell suspension, which was then quickly pipetted onto a pre-coated microscope slide. Cell samples were lysed in 0.5% SDS, 30 mM EDTA, pH 8.0, for four hours at 50 °C. Samples were electrophoresed for 25 minutes at 0.6 V cm^−1 after being rinsed overnight at room temperature in Tris/borate/EDTA buffer, pH 8.0. Propidium iodide was then added for staining. A fluorescent microscope equipped with a CCD camera was used to observe the slides, and 150 unique comet photos from each sample were examined to determine the tail moment, DNA content, and percentage of DNA in the tail. To find the fraction of cells with DNA damage that resemble comets in each sample, around 100 cells were analyzed. Based on perceived comet tail length migration and relative proportion of DNA in the nucleus, the non-overlapping cells were randomly chosen and visually assigned a score on an arbitrary scale of 0–3. Class 0 = no detectable DNA damage and no tail; class 1 = tail with a length less than the nucleus diameter; class 2 = tail with length between 1× and 2× the nuclear diameter; and class 3 = tail longer than 2× the nucleus diameter.[54]

[1] = MTT assay, normal cell line BJ1; type: cell-based; conditions: human, at 100 μg ml^−1, 48 hours, read-out: (%) Mortality of BJ1
Experimental: (§2) The percentage of the cell viability treated with the newly synthesized compounds was evaluated using MTT assay (3-(4,5-dimethylthiazol-2-yl)-2,5-diphenyl tetrazolium bromide). All the subsequent steps were done in a sterile Laminar flow class II biosafety cabinet (Baker, SG406INT, Sanford, ME, USA). DMEM was used as a suspension medium for breast cancer (MCF7), prostate cancer (PC3), and pancreatic cancer (PACA2), while normal cell line (BJ1) was suspended in DMEM-F12 medium, a 1% antibiotic-antimycotic mixture (10 000 U ml^−1 potassium penicillin, 10 000 μg ml^−1 streptomycin sulfate, and 25 μg ml^−1 amphotericin B), and 1% L-glutamine at 37 °C under 5% CO2.
(§3) Cells were cultured for 10 days and then seeded at a concentration of 10 × 10^4 cells per well in fresh complete growth medium in 96-well microtiter plastic plates at 37 °C for 24 hours under 5% CO2 using a water-jacketed carbon dioxide incubator (Sheldon, TC2323). Media were aspirated, serum-free fresh medium was added, and cells were incubated either alone (negative control) or with different concentrations of the synthesized chalcone derivatives to a final concentration of (100–50–25–12.5–6.25–3.125–0.78 and 1.56 μg ml^−1). After incubation for 48 hours, the medium was aspirated and 40 μl of MTT salt ([…]) was added to each well and incubated for another four hours at 37 °C under 5% CO2. To stop the reaction and dissolve the formed crystals, 200 μl of 10% sodium dodecyl sulfate (SDS) in deionized water was added to each well and incubated overnight at 37 °C.
(§4) The absorbance was then measured at 595 nm and a reference wavelength of 620 nm using a microplate multi-well reader (Bio-Rad Laboratories Inc., model 3350). Statistical significance was tested between the samples and the negative control (cells with vehicle) using an independent t-test using the SPSS 11 program. DMSO was the vehicle used for the dissolution of the synthesized chalcones, and its final concentration on the cells was less than 0.2%. The percentage of change in viability was calculated according to the formula: ((reading of extract/reading of negative control) − 1) × 100. A Probit analysis was carried out for the determination of IC50 using the SPSS 11 program.

[2] = test system: MCF7 (human breast adenocarcinoma); assay: MTT assay, MCF7; type: cell-based; conditions: for cytotoxicity at 100 µg/mL / IC50: Homo sapiens; for IC50: 48 hours
Experimental: as §2, §3, §4

PC3 (prostatic cancer) = assay: MTT assay, PC3; type: cell-based
Experimental: as §2, §3, §4

[3] = test system: PACA2 (pancreatic carcinoma); assay: MTT assay, PACA2; type: cell-based; conditions: for cytotoxicity at 100 µg/mL / IC50: Homo sapiens; for IC50: 48 hours
Experimental: as §2, §3, §4

MCF-7 = assay: Comet assay (DNA damage), breast cancer cell line; type: cell-based, human; conditions: for DNA damaged cells% (mean ± SEM): MCF-7, comet assay, −ve 9.63 ± 0.64; for No. of cells, Comets: MCF-7, of 405 cells analyzed; for No. of cells, Class 0 / No. of cells, Class 1 / No. of cells, Class 2 / No. of cells, Class 3: MCF-7, of 405 cells; for No. of cells, Class 0: class 0 = no tail; for No. of cells, Class 1: class 1 = tail length < diameter of nucleus; for No. of cells, Class 2: class 2 = tail length between 1× and 2× the diameter of nucleus; for No. of cells, Class 3: class 3 = tail length > 2× the diameter of nucleus
Experimental: as §1

MCF7 cell lines = assay: DNA fragmentation assay, MCF7; type: cell-based, human; conditions: for DNA fragmentation, Inhibition (%): MCF7; for DNA fragmentation (%) M ± SEM: MCF7, 24 hours of exposure, −ve control 8.6 ± 0.36; for DNA fragmentation, Change: MCF7, change versus −ve control
Experimental: The DNA fragmentation assay in breast and pancreatic cancer cell lines was performed in accordance with the method of Helmy et al., 2022 (ref. [15]) with some modifications. Briefly, after 24 hours of exposure of breast and pancreatic cancer cell lines to the tested chalcone compounds in different Petri dishes (60 × 15 mm, Greiner), the cells were trypsinized, suspended, homogenized in 1 ml of medium, and centrifuged (10 min at 800 rpm). Low-molecular-weight genomic DNA was extracted as described in Yawata et al., 1998.[52] Approximately 1 × 10^6 cells were plated and treated with the tested substances in various treatments. All the cells (including floating cells) were harvested by trypsinization and washed with Dulbecco's phosphate-buffered saline. Cells were lysed with the lysis buffer containing 10 mM Tris (pH 7.4), 150 mM NaCl, 5 mM EDTA, and 0.5% Triton X-100 for 30 minutes on ice. Lysates were vortexed and cleared by centrifugation at 10 000 g for 20 min. Fragmented DNA in the supernatant was extracted with an equal volume of a neutral phenol/chloroform/isoamyl alcohol mixture (25 : 24 : 1) and analyzed electrophoretically on 2% agarose gels containing 0.1 μg ml^−1 ethidium bromide.

Row | Compound | No. of cells, Class 0 (Paca2) | No. of cells, Class 1 (Paca2) | No. of cells, Class 2 (Paca2) | No. of cells, Class 3 (Paca2) | IC50 ([2]; MCF7, MTT) [µM] | IC50 ([3]; PaCa-2, MTT) [µM] | No. of cells, Comets (MCF-7) | No. of cells, Class 0 (MCF-7) | No. of cells, Class 1 (MCF-7) | No. of cells, Class 2 (MCF-7) | No. of cells, Class 3 (MCF-7) | cytotoxicity at 48 h, 100 μg ml^−1 ([1]; BJ1 normal skin fibroblasts) [%] | DNA fragmentation, Inhibition (%) (MCF7 cell lines) | DNA fragmentation (%) M ± SEM (MCF7 cell lines) | DNA fragmentation, Change (MCF7 cell lines) | other results
1 | Cc1c(C(=O)C=Cc2nn(-c3ccccc3)cc2-c2ccc([N+](=O)[O-])cc2)c(-c2cccs2)nn1-c1ccc([N+](=O)[O-])cc1 [Compound 9e, 1-(5-Methyl-1-(4-nitrophenyl)-3-(thiophen-2-yl)-1H-pyrazol-4-yl)-3-(4-(4-nitrophenyl)-1-phenyl-1H-pyrazol-3-yl)prop-2-en-1-one] | 290 | 35 | 37 | 43 | 59.3 ± 0.85 | 27.6 ± 0.33 | – | – | – | – | – | – | – | – | – | DNA damaged cells% (mean ± SEM) (Paca2): 28.40 ± 1.04% and 28.40 ± 1.04^a %; No. of cells, Comets (Paca2; Paca2, of 405 cells analyzed): 115; cytotoxicity at 48 h, 100 μg ml^−1 [1]: 5.6 ± 0.55%; cytotoxicity at 100 µg/mL ([2]; MCF7, 48 h, read-out: (%) Mortality of MCF7): 14.2 ± 0.37%; cytotoxicity at 100 µg/mL (PC3 (prostatic cancer); Homo sapiens, 48 h, read-out: (%) Mortality of PC3): 5.3 ± 0.94%; cytotoxicity at 100 µg/mL ([3]; PaCa-2, 48 h, read-out: (%) Mortality of PACA2): 100%
2 | Cc1nn(-c2ccccc2)c(C=CC(=O)c2c(-c3cccs3)nn(-c3ccc([N+](=O)[O-])cc3)c2C)c1Cl [Compound 7d, 3-(4-Chloro-3-methyl-1-phenyl-1H-pyrazol-5-yl)-1-(5-methyl-1-(4-nitrophenyl)-3-(thiophen-2-yl)-1H-pyrazol-4-yl)prop-2-en-1-one] | – | – | – | – | 42.6 ± 0.71 | 51.9 ± 0.29 | 105 | 300 | 30 | 41 | 34 | 12.3 ± 0.23 | 20.48 | 21.8 ± 0.94% and 21.8 ± 0.94^a % | 13.2 | DNA damaged cells% (mean ± SEM) (MCF-7): 25.93 ± 1.08^a %; cytotoxicity at 100 µg/mL ([2]; MCF7, 48 h, at 100 μg ml^−1, 48 hours, MTT, read-out: (%) Mortality of MCF7): 70 to 80%; cytotoxicity ([2]; at 100 μg ml^−1, 48 hours, MTT, read-out: (%) Mortality of MCF7): 71.2 ± 0.14%; cytotoxicity at 100 µg/mL (PC3 (prostatic cancer); Homo sapiens, 48 h, at 100 μg ml^−1, 48 hours, MTT, read-out: (%) Mortality of PC3): 70 to 80%; IC50 (PC3 (prostatic cancer); Homo sapiens, MTT, 48 hours): 66.9 ± 0.98 µM; cytotoxicity (PC3 (prostatic cancer); at 100 μg ml^−1, 48 hours, MTT, read-out: (%) Mortality of PC3): 70.6 ± 0.97%; cytotoxicity at 100 µg/mL ([3]; PaCa-2, 48 h, at 100 μg ml^−1, 48 hours, MTT, read-out: (%) Mortality of PACA2): 70 to 80%; cytotoxicity ([3]; at 100 μg ml^−1, 48 hours, MTT, read-out: (%) Mortality of PACA2): 80.3 ± 19%
3 | COc1cccc2c1C(=O)c1c(O)c3c(c(O)c1C2=O)C[C@@](O)(C(=O)CO)C[C@@H]3O[C@H]1C[C@H](N)[C@H](O)[C@H](C)O1 [Doxorubicin, reference compound] | 299 | 38 | 32 | 36 | 48 ± 0.74 | – | 89 | 316 | 27 | 33 | 29 | 100 | 23.67 | 25.2 ± 0.65% | 16.6 | DNA damaged cells% (mean ± SEM) (Paca2; listed as Dox): 26.17 ± 1.38% and 26.17 ± 1.38^a %; DNA damaged cells% (mean ± SEM) (MCF-7; listed as Dox): 21.98 ± 0.91^b %; cytotoxicity at 100 µg/mL ([2]; MCF7, at 100 μg ml^−1, 48 hours, MTT, read-out: (%) Mortality of MCF7): 100%; cytotoxicity at 100 µg/mL (PC3 (prostatic cancer); Homo sapiens, at 100 μg ml^−1, 48 hours, MTT, read-out: (%) Mortality of PC3): 100%; DNA fragmentation (%) M ± SEM (MCF7 cell lines; listed as MCF7 +ve control): 25.2 ± 0.65^a %; cytotoxicity at 100 µg/mL ([3]; PaCa-2, at 100 μg ml^−1, 48 hours, MTT, read-out: (%) Mortality of PACA2): 100%
